The text below walks through data of patent US5811568A, “Process for the preparation of mono- and bis(phosphocholine) derivatives which have antifungal activity” (Shaman Pharmaceuticals, Inc., priority 1994, dated 1998).

In general, MIC refers to the least concentration at which growth counts as inhibited. Lower therefore signals a more susceptible organism.

Format in all cases: cell-based
One test concerns Candida albicans. The test is described as follows: in vitro antifungal activity, minimum inhibitory concentration (MIC), Candida albicans. From the text:
(§1) The antifungal activity of two exemplary phosphocholines prepared using the method of the invention, i.e., (1) synthetic 1,22-Bis-[2-(trimethylammonium)ethylphosphatyl] docosane obtained using the stepwise synthetic route and, (2) synthetic 1,22-Bis-[2-(trimethylammonium)ethyl-phosphatyl] docosane obtained using the one-pot one step route, as well as the antifungal activity of (3) the natural product isolated from Irbachia alata identified as 1,22-Bis-[2-(trimethylammonium)ethyl-phosphatyl] docosane (see International Application filed Oct. 8, 1993 was determined in vitro using three fungal cultures--Candida albicans (CA), Cryptococcus neoformans (CN), and Aspergillus fumigatus (CF). The method used to determine in vitro antifungal activity is described in McGinnis, M. R., Laboratory Handbook of Medical Mycology, Academic Press, New York, London, p 412-416 (1980); and Drouget, E.; Dupont, B.; Improvisi, L.; Vivian, M. A.; and Tortorano, A. M.; "Disc agar difusion and microplate automatized techniques for in vitro evaluation of antifungal agents on yeast and sporulated pathogenic fungi" in In Vitro and In Vivo Evaluation of Antifungal Agents, Eds. Iwata, K. and Vanden Bossche, H., Elsevier Science Publishers, New York, Oxford, p 303 (1986). The minimum inhibitory concentration (MIC) for each is summarized in Table I. Partial inhibition of the fungus of between 25% to 75% was also measured. A description of the partial inhibition measurement can be found in R. L. Stiller, et al, The Journal of Infectious Diseases, 147, No 6 (1983).

Test [1] concerns Aspergillus fumigatus. The test is described as follows: in vitro antifungal activity, minimum inhibitory concentration (MIC), Aspergillus fumigatus.
Excerpt: as §1

The next test has as its system Cryptococcus neoformans. The test is described as follows: in vitro antifungal activity, minimum inhibitory concentration (MIC), Cryptococcus neoformans.
Excerpt: as §1

The test system of test [2] is Aspergillus fumigatus. The test is described as follows: partial inhibition of the fungus, Aspergillus fumigatus. The settings on record: in vitro, partial inhibition of between 25% to 75%.
Excerpt: as §1, with “The minimum inhibitory concentration (MIC) for each is summarized in Table I. Partial inhibition of the fungus of between 25% to 75% was also measured. A description of the partial inhibition measurement can be found in R. L. Stiller, et al, The Journal of Infectious Diseases, 147, No 6 (1983).” left out

For the molecule `C[N+](C)(C)CCOP(=O)([O-])OCCCCCCCCCCCCCCCCCCCCCCOP(=O)([O-])OCC[N+](C)(C)C` [1,22-Bis [2-(trimethylammonium)ethylphosphatyl] docosane], the MIC was found to be 1.25 µg/mL in the test on Candida albicans and 0.08 µg/mL against Aspergillus fumigatus [1].
Consider `C[N+](C)(C)CCOP(=O)([O-])OCCCCCCCCCCCCCCCCCCCCCCOP(=O)([O-])OCC[N+](C)(C)C` [Isolated Natural Product 1,22-Bis[2[(trimethyl ammonium)ethy] [1,22-Bis-[2-(trimethylammonium)ethyl-phosphatyl] docosane], for which the “MIC CA” value against Candida albicans was determined as 1.25 µg/mL. Moreover, in the test with Cryptococcus neoformans, the “MIC CN” value was < 0.04 µg/mL. In addition, in the test with Aspergillus fumigatus [1], the “MIC AF” value worked out at 0.08 µg/mL.
With `C[N+](C)(C)CCOP(=O)([O-])OCCCCCCCCCCCCCCCCCCCCCCOP(=O)([O-])OCC[N+](C)(C)C` [Synthetic 1,22-Bis[2-trimethyl-ammonium)ethyl phosphatyl] do] [1,22-Bis [2-(trimethylammonium)ethylphosphatyl] docosane], the “MIC CN” value with Cryptococcus neoformans turned out to be 0.08 µg/mL. The “Partial inhibition AF” value in the test on Aspergillus fumigatus [2] worked out at 0.02 µg/mL.
Regarding `C[N+](C)(C)CCOP(=O)([O-])OCCCCCCCCCCCCCCCCCCCCCCOP(=O)([O-])OCC[N+](C)(C)C` [Synthetic 1,22-Bis[2-(trimethyl-ammonium)ethyl phosphatyl] d] [1,22-Bis [2-(trimethylammonium)ethylphosphatyl] docosane], the “MIC CA” value against Candida albicans worked out at 0.8 µg/mL. Further, the “MIC CN” value against Cryptococcus neoformans was < 0.1 µg/mL. In the test on Aspergillus fumigatus [1], the “MIC AF” value was < 0.1 µg/mL. In addition, in the test with Aspergillus fumigatus [2], the “Partial inhibition AF” value was found to be 0.1 µg/mL.
